# Entries after “also recorded” stand apart in the source; their conditions may differ.
# Tests used:
# [1] = system: TRAP positive multinucleated osteoclasts; experiment: TRAP positive multinucleated osteoclasts from bone marrow cells; assay type: cell-based, rat; settings: RANKL and GMCSF, 12 days
# Procedure: FIG. 7: Effect of the indicated compounds on TRAP positive multinucleated osteoclasts. Bone marrow cells from rat femur was cultured in Alpha MEM+10% csFBS without phenol red in the presence or absence of 30 ng/ml RANKL and 10 ng/ml GMCSF. The cells were treated for 12 days and were stained for tartarate resistant acid phosphatase activity (TRAP) and multinucleated osteoclasts were counted.
# Bone marrow cells isolated from rat femur were cultured in Alpha MEM without phenol red+10% sterile FBS without phenol red in the presence or absence of […] RANKL and 10 ng/ml GMCSF. The cells were treated for 12 days were stained for tartarate resistant acid phosphatase activity (TRAP) positive multinucleated osteoclasts and were counted.
# ER-α = target: T1, ER-α (Rattus norvegicus, UniProt P06211); experiment: ER-α transactivation, ERE-LUC in COS or 293 cells; assay type: cell-based; set-up: % estardiol activity, ER-α: dose or concentration left out as unconfirmed
# T1 sequence (P06211 1-600): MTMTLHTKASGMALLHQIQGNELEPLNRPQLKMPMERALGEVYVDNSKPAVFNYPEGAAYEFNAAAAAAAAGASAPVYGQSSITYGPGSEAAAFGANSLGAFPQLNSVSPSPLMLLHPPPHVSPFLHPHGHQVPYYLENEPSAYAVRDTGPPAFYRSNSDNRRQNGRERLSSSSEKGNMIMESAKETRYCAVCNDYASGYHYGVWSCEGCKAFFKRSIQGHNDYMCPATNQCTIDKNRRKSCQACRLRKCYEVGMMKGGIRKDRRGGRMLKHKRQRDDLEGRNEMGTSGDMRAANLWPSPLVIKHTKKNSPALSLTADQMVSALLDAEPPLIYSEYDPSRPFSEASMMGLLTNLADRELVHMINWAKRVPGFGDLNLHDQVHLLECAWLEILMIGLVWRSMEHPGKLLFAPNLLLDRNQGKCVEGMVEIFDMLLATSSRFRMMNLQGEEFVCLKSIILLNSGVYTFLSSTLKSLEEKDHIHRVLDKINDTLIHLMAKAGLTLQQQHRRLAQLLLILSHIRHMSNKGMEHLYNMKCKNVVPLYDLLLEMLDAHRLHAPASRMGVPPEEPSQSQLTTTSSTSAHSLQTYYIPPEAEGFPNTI
# Procedure: FIG. 1: Effects of the indicated compounds on ER-α transactivation. COS or 293 cells plated in DME without phenol red+10% charcoal stripped fetal bovine serum (csFBS) at 90,000 cells per well of 24 well plates were transfected with 0.25 μg ERE-LUC, 0.02 μg CMV-LUC (Renilla) and 25 ng of ER-α by lipofectamine. Twenty four hours after transfection, the cells were treated as indicated in the figure, harvested 48 hrs after transfection and were assayed for firefly and renilla luciferase.
# (§1) FIG. 5: Effect of the indicated compounds on ER-α transactivation. COS or 293 cells plated in DME without phenol red+10% csFBS at 90,000 cells per well of a 24 well plate were transfected with 0.25 μg ERE-LUC, 0.02 μg CMV-LUC (Renilla) and 5 ng of ER-α by lipofectamine. Twenty four hours after transfection, the cells were treated as indicated in the figure, harvested 48 hrs after transfection and were assayed for firefly and renilla luciferase.
# as §1, with “FIG. 9:” for “FIG. 5:”, “csFBS” for “csFBS at 90,000 cells”, “and 25” for “and 5”
# Also 25 ng of ER-α (FIGS. 1, 5, and 9), 50 ng of ER-β (FIGS. 2, 6 and 10) or 12.5 ng of AR (FIG. 3) were introduced by lipofectamine. All the receptors were cloned from rat tissue into the PCR3.1 vector backbone. […] Cells were harvested 48 hrs after transfection, and assayed for firefly and Renilla luciferase activity.
# Also 25 ng of ER-α), 50 ng of ER-β or 12.5 ng of AR were introduced by lipofectamine. All the receptors were cloned from rat tissue into the PCR3.1 vector backbone. […] Cells were harvested 48 hrs after transfection, and assayed for firefly and Renilla luciferase activity.
# [2] = Metabolic stability in human liver microsomes; settings: 1 μM substrate, 0.5 mg/mL microsomes
# Procedure: Each substrate or reference control was dissolved at a concentration of 10 mM in DMSO, from which a 5 μM spiking solution was prepared by dilution in water. Substrates (1 μM) were incubated in the presence of human liver microsomes (Xenotech LLC, Kansas City Mo.) at 0.5 mg/mL fortified with an NADPH regenerating system at 37° C. and pH 7.4. The NADPH regenerating system consisted of glucose-6-phosphate dehydrogenase (1 units/mL) in 0.05M K2HPO4. Duplicate incubations were performed in 96-well polypropylene cluster tubes in a final volume of 250 μL per reaction. At 0, 2, 4, 6, 10, 30, and 60 minutes a stop solution (300 μL acetonitrile) was added to aliquots of the reaction mixture. Precipitated protein was removed by centrifugation (3000 rpm for 15 minutes) and the supernatants were transferred to clean 96-well plates for analysis.
# The samples were injected onto a Phenomenex Luna hexylphenyl 50×2 mm i.d. 5 uM, column fitted with a guard column. An isocratic mobile phase consisting of 50% acetonitrile and 0.1% formic acid in water was used at a flow rate of 0.3 mL/min. The protonated molecular ion (M+H)^+ of the analyte was monitored by MDS/Sciex API 4000QTrap triple quadrupole mass spectrometer using electrospray positive mode ionization with a temperature of 500° C. and a spray voltage of 4000V. Total analysis time was 1.5 min per sample.
# Metabolic stability was defined as the amount of substrate metabolized by the incubation with hepatic microsomes and expressed as a percentage of the initial amount of substrate (% remaining) based on peak area. Initial substrate concentration for each analyte was 1 μM. The initial peak area of each substrate was determined at time zero and metabolic stability was assessed based on the change in analyte peak area from time 0 min to a single fixed timepoint for each sample (2-60 min, representative timepoints are shown in Table 2 below).
# uterus = experiment: In vivo estrogenic activity, uterine weight; set-up: species or system rat; settings: female rats; for estrogenic activity in terms of uterine weight: compound alone
# Procedure: Rats that were administered the vehicle alone served as controls.
# ER-β = target: T2, ER-β (Rattus norvegicus, UniProt Q62986); experiment: ER-β transactivation, ERE-LUC in COS or 293 cells; assay type: cell-based; settings: COS or 293 cells
# T2 construct: expressed in transfected cells; host or cells: COS or 293 cells
# Procedure: as §1, with “FIG. 2:” for “FIG. 5:”, “on ER-β” for “on ER-α”, “and 50” for “and 5”, “of ER-β” for “of ER-α”
# as §1, with “FIG. 6:” for “FIG. 5:”, “on ER-β” for “on ER-α”, “and 50” for “and 5”, “of ER-β” for “of ER-α”, “and” for “and were”
# as §1, with “FIG. 10:” for “FIG. 5:”, “on ER-β” for “on ER-α”, “in DME+10%” for “in DME without phenol red+10%”, “and 50” for “and 5”, “of ER-β” for “of ER-α”
# (§2) All the receptors were cloned from rat tissue into the PCR3.1 vector backbone. […] Cells were harvested 48 hrs after transfection, and assayed for firefly and Renilla luciferase activity.
# as §2
# [3] = system: pS2 (gene encoding the trefoil peptides) in MCF-7 cells; experiment: pS2 gene expression in MCF-7 cells (realtime RT-PCR); assay type: cell-based; settings: 16 hrs
# Procedure: MCF-7 cells were plated at 500,000 cells per well of a 6 well plate. RNA was isolated and the message levels of pS2 (gene encoding the trefoil peptides) measured and normalized to 18S ribosomal RNA by realtime polymerase chain reaction (rtPCR).
# FIG. 11: Agonistic activity of the indicated compounds in MCF-7 cells. MCF-7 cells were plated at 500,000 cells per well of a 6 well plate. RNA was isolated and the message levels of pS2 gene measured and normalized to 18S ribosomal RNA by realtime rtPCR.
# MCF-7 cells were plated at 500,000 cells per well of a 6 well plate. The cells were serum starved for 3 days and then were treated as above for 16 hrs. RNA was isolated and gene expression levels assessed by realtime RT-PCR, following normalization to 18S ribosomal RNA.
# PC-3 cells = experiment: Androgen independent prostate cancer cell growth; assay type: cell-based; settings: for PC-3 growth inhibition, qualitative grading: in vitro, data not shown; for inhibition at 10 µM: Homo sapiens, PC-3, 72 hrs
# Procedure: PC-3 cells were plated in RPMI+10% csFBS at 6000 cells per well of a 96 well plate. Medium was changed to RPMI+1% csFBS without phenol red and then treated for 72 hrs with increasing concentrations of SERMs.
# The prostate cancer cell line PC-3 was plated in RPMI+10% csFBS at 6000 cells per well of a 96 well plate. Medium was changed to RPMI+1% csFBS without phenol red and cells were treated for 72 hrs with increasing concentrations of SERMs.
# PC-3 growth inhibition was determined qualitatively, in vitro, and represented as a grading system based on the ability of the SERMs to inhibit growth. The number −4 is for compounds that induced 100% growth inhibition at 1 uM, −3 for compounds that inhibit growth by about 75-90%, −2 for about 50-70% and −1 for inhibition less than 50% growth.
# T2 sequence (Q62986 whole entry): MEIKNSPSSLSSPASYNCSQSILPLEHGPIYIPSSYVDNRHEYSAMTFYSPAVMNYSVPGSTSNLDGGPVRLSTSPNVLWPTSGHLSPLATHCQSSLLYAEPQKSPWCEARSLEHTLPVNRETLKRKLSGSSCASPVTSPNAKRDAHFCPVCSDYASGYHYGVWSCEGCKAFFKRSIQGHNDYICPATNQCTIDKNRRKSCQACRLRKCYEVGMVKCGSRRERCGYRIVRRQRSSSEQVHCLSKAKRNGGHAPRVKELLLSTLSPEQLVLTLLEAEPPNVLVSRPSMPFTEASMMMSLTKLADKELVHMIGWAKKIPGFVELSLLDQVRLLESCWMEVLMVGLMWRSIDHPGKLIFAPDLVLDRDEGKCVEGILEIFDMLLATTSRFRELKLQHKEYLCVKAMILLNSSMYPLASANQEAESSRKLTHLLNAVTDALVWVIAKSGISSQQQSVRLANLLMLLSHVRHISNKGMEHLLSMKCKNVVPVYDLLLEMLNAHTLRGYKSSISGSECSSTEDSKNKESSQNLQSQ
smiles,measurement,setting,value
"O=C(c1ccc(O)cc1)N(c1ccc(O)cc1)c1ccc(O)cc1 [Compound 3a, 4-hydroxy-N,N-bis-(4-hydroxyphenyl)-benzamide]",osteoclast differentiation / osteoclast activity,[1],suppressed osteoclasts
same,"% estardiol activity, ER-α",ER-α,49.5%
same,% Remaining 0 min,[2]; 0 min,100%
same,% Remaining 10 min,[2]; 10 min,140%
same,% Remaining 30 min,[2]; 30 min,118%
same,% Remaining 60 min,[2]; 60 min,103%
same,estrogenic activity in terms of uterine weight,uterus,"exhibited estrogenic activity, in vivo"
same,"ER-β LUC expression, compound alone",ER-β,most potent in stimulating ER-β
"O=S(=O)(c1ccc(O)cc1)N(c1ccccc1)c1ccccc1 [Compound 3l, 4-hydroxy-N,N-diphenyl-phenyl-sulfonamide]",estrogenic activity in terms of uterine weight,uterus,"exhibited no estrogenic, or anti-estrogenic activity in uterus"
same,pS2 expression,[3],increased pS2 expression levels
same,"PC-3 growth inhibition, qualitative grading",PC-3 cells,−2 (−2 for about 50-70%)
"Cl.Cl.O=C(c1ccc(OCCN2CCCCC2)cc1)N(c1ccc(F)cc1)c1ccc(OCCN2CCCCC2)cc1 [Compound 4r, N-(4-fluorophenyl)-N-[4-(2-piperidin-1-ylethoxy)-phenyl]-[4-(2-piperidin-1-yl-ethoxy)]-benzamide dihydrochloride]",inhibition at 10 µM,PC-3 cells,100%
same,"PC-3 growth inhibition, qualitative grading",PC-3 cells,−4 (The number −4 is for compounds that induced 100% growth inhibition at 1 uM)
"O=C(c1cccc(O)c1)N(c1ccccc1)c1ccccc1 [Compound 3f, 3-hydroxy-N,N-diphenyl-benzamide]",estrogenic activity in terms of uterine weight,uterus,"exhibited estrogenic activity, in vivo"
same,pS2 expression,[3],increased pS2 expression levels
"Cl.O=C(c1ccc(OCCN2CCCCC2)cc1)N(c1ccccc1)c1ccc(O)cc1 [Compound 4e, N-(4-hydroxyphenyl)-N-phenyl-[4-(2-piperidin-1-ylethoxy)]-benzamide hydrochloride]",estrogenic activity in terms of uterine weight,uterus,"exhibited no estrogenic, or anti-estrogenic activity in uterus"
same,"PC-3 growth inhibition, qualitative grading",PC-3 cells,−1 (−1 for inhibition less than 50% growth)
"O=C(c1ccc(OCCN2CCCCC2)cc1)N(c1ccc(O)cc1)c1ccc(F)cc1 [Compound 4g, N-(4-fluorophenyl)-N-[4-hydroxyphenyl]-[4-(2-piperidin-1-ylethoxy)]-benzamide]",estrogenic activity in terms of uterine weight,uterus,"exhibited estrogenic activity, in terms of increased uterine weight; also recorded: exhibited estrogenic activity, in vivo"
same,"uterine weight increase, with ICI-182,780","uterus; with ICI-182,780","ICI-182,780 reversed 4a and 4g effects on uterine weight increase"
same,"uterine weight, coadministered with estrogen",uterus; with estrogen,an increase in uterine weight was observed
"Cl.Cl.O=C(c1ccc(OCCN2CCCCC2)cc1)N(c1ccccc1)c1ccc(OCCN2CCCCC2)cc1 [Compound 4u, N-[4-(2-piperidin-1-ylethoxy)-phenyl]-N-phenyl-[4-(2-piperidin-1-ylethoxy)]-benzamide dihydrochloride]","% estardiol activity, ER-α",ER-α,12.8%
same,inhibition at 10 µM,PC-3 cells,100%
same,"PC-3 growth inhibition, qualitative grading",PC-3 cells,−3 (−3 for compounds that inhibit growth by about 75-90%)
"O=C(c1ccccc1)N(c1ccccc1)c1ccc(OCCN2CCCCC2)cc1 [Compound 4b, N-(phenyl)-N-[4-(2-piperidin-1-ylethoxy)-phenyl]-benzamide]","PC-3 growth inhibition, qualitative grading",PC-3 cells,−1 (−1 for inhibition less than 50% growth)

# Reference: US8158828B2, “Nuclear receptor binding agents” (priority 2005, dated 2012)
